Among the data in BindingDB's records for doi:10.1016/s0960-894x(99)00217-6 (Palatin Technologies, 1999) are Ki values, retold here.

The target in the assay is T1, Neutrophil elastase (Homo sapiens, UniProt P08246).
T1 sequence (P08246 whole entry): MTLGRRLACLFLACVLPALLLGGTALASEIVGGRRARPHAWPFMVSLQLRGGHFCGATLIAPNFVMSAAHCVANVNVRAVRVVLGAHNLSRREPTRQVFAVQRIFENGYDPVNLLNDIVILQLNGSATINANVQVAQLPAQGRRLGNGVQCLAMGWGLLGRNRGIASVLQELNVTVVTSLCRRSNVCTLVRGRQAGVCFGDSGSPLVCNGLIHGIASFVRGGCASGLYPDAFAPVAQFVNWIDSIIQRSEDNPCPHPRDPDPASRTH
The experiment in a line: ChEBML_64294. An excerpt: Kinetic constant for human neutrophil elastase

pKi: −log10 of the molar value.

One may read the pKi as −log10 of the Ki, conventionally taken in molar units. The molecule `CC[C@@H](C)/C(NS(=O)(=O)c1ccc(C)cc1)=C(\O)[N]1[C@@H](CCCCNC(=O)C23CC4CC(CC(C4)C2)C3)C(=O)[N]2[C@H](C(=O)N[C@H](C(N)=O)C(C)C)C[S][Re]21=[O]` (stereo partly drawn) had a pKi of 3.88. Molecule `CC[C@@H](C)/C(NS(=O)(=O)c1ccc(C)cc1)=C(\O)[N]1[C@@H](CCCCNC(=O)C23CC4CC(CC(C4)C2)C3)C(=O)[N]2[C@H](C(=O)N[C@H](C(=O)O)C(C)C)C[S][Re]21=[O]` (stereo partly drawn) had a negative logarithm of the Ki (pKi) of 4.44. Then `CC[C@@H](C)/C(NCc1ccccc1)=C(\O)[N]1[C@@H](CCCCNC(=O)C23CC4CC(CC(C4)C2)C3)C(=O)[N]2[C@H](C(=O)N[C@H](C(N)=O)C(C)C)C[S][Re]21=[O]` (stereo partly drawn), with 3.71.
